Tested on: myocardium
Procedure: Sixteen closed-chest studies were performed in 6 healthy, adult mongrel dogs of both sexes weighing 15 to 30 kg. The dogs were maintained on a standard laboratory diet which was discontinued 24 hours prior to study. The animals were anesthetized using a combination of xylazine and sodium pentobarbital. Transmission cross-sectional scans of the chest area were performed on each dog with an ECAT II scanner using a ^68 Ge ring source with medium resolution filters and standard shadow shields. Measured attenuation coefficients were used for reconstructing the emission tomographs. […] Serial scans of the heart from base to apex in 10-15 mm steps were made starting 3-5 minutes after injection. After each series was completed, the ECAT II bed was returned to the original position and the dogs were rescanned. This procedure was repeated over a 2 to 4 hour period. Each set of scans required approximately 1 hour for 6 slices, so that 2 to 4 sets of images were obtained in each study. Sequential images were also obtained through a 20-mm section of the heart over a 2-hour period. Additional images from 1 dog were obtained using the new high-resolution ECAT III scanner. […] The animals were injected through a cannula or catheter in the leg and heparanized venous blood samples were removed from the opposite side. Known aliquots of whole blood, plasma, and erythrocytes were assayed in a well-type scintillation counter to determine the ^64 Cu levels present in the different components.

With copper-64 citrate [^64 Cu citrate] the “image quality with the PET” value (^64 Cu citrate, PET) was “unexpectedly distinct image”, the “useful images of the myocardium” value (dog) was “yields useful images of the myocardium” and the “uptake by the myocardium” value (dog, intravenous, tomographic images) was “rapid and uniform uptake of the compound throughout the myocardium”. The “uptake by myocardial tissue over time” value (dog, over the time periods studied) was “occurs quite rapidly and remains constant over the time periods studied”, the “visibility of the left ventricle in the emission scan” value (dog, transverse section) was “very distinctly” and the “visibility of the right ventricle in the emission scan” value (dog, transverse section) was “less clearly seen”.

— patent US4756904A (Oak Ridge Associated Universities, Inc., priority 1986, dated 1988)
